Test results: ChEMBL document CHEMBL1909046, “DrugMatrix in vitro pharmacology data”

Legend:
[1] = DRUGMATRIX: beta-Lactamase enzyme inhibition (substrate: Nitrocefin); set-up: species or system Bacillus cereus; settings: Not Active = under 50% inhibition at 10 µM
[2] = DRUGMATRIX: Calcium Channel Type L, Phenylalkylamine radioligand binding (ligand: [3H] (-)-Desmethoxyverapamil (D-888)); type: cell membranes, Rattus norvegicus, Wistar, Brain, Membrane; settings: Not Active = under 50% inhibition at 10 µM
[3] = DRUGMATRIX: GABAA, Chloride Channel, TBOB radioligand binding (ligand: [3H] TBOB); type: cell membranes, Rattus norvegicus, Wistar, Cerebral cortex, Membrane; settings: Not Active = under 50% inhibition at 10 µM
[4] = biological target: T1, Leukotriene C4 synthase (Cavia porcellus, UniProt A6XA80); type: tissue-based, Lung;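 also: enzyme inhibition assay of leukotriene C4 synthase, using LTA4 as the substrate; in other assays of this panel Not Active means under 50% inhibition at 10 µM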
T1 sequence (A6XA80 whole entry): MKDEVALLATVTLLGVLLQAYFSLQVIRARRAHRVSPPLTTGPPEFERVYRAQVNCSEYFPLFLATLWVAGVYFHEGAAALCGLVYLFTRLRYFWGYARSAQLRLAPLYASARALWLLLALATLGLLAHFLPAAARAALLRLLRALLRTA

[5] = biological target: Platelet-activating factor receptor (Homo sapiens, UniProt P25105); assay: biochemical; type: tissue-based; settings: platelet; also: in other assays of this panel Not Active means under 50% inhibition at 10 µM
Chain of Platelet-activating factor receptor (P25105 whole entry): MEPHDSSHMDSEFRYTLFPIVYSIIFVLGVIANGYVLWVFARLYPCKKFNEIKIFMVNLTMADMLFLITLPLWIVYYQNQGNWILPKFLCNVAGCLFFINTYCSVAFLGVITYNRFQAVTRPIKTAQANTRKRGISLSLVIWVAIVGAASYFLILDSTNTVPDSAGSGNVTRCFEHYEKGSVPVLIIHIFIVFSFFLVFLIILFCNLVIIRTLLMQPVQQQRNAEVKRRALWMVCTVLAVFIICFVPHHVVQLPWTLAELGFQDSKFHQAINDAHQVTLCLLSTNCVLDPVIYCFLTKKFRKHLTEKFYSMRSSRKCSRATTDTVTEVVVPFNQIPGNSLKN

[6] = biological target: T2, Neutrophil elastase (Homo sapiens, UniProt P08246); type: tissue-based;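 also: inhibition of neutrophil elastase enzyme activity, measured with a p-nitroanilide-linked peptide substrate; in other assays of this panel Not Active means under 50% inhibition at 10 µM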
T2 sequence (P08246 whole entry): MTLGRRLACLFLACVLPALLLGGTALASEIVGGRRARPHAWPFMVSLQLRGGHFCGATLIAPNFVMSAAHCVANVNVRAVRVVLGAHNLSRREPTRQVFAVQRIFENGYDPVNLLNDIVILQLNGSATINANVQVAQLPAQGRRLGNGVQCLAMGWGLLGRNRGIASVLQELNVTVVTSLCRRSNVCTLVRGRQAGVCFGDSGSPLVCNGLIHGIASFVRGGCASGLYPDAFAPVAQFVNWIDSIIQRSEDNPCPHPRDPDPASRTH

[7] = biological target: T3, Interstitial collagenase (Homo sapiens, UniProt P03956); type: tissue-based, Rheumatoid synovial fibroblasts;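 also: MMP-1 enzyme inhibition assay using a peptide substrate; in other assays of this panel Not Active means under 50% inhibition at 10 µM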
T3 sequence (P03956 whole entry): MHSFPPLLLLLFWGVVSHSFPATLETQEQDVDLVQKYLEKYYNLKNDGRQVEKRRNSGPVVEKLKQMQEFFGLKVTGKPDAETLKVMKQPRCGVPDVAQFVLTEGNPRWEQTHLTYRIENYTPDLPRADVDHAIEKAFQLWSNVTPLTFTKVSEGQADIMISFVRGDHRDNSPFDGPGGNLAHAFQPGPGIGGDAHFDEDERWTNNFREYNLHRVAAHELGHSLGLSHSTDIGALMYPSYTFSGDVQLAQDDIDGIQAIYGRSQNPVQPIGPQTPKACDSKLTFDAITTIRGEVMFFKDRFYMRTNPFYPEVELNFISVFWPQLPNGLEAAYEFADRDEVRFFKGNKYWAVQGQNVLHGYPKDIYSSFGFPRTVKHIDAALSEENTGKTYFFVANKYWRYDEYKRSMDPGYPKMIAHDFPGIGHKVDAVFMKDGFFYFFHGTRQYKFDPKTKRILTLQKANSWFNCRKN

CC(CCc1ccc(O)cc1)NCCc1ccc(O)c(O)c1 (centres undefined) [DOBUTAMINE]
Not Active: IC50 [1] | Ki [1] | IC50 [2] | Ki [2] | IC50 [3] | Ki [3] | IC50 [4] | IC50 [5] | IC50 [6] | IC50 [7]

CC(C)(Sc1cc(C(C)(C)C)c(O)c(C(C)(C)C)c1)Sc1cc(C(C)(C)C)c(O)c(C(C)(C)C)c1 [PROBUCOL]
Not Active: IC50 [1] | Ki [1] | IC50 [2] | Ki [2] | IC50 [3] | Ki [3] | IC50 [4] | IC50 [5] | IC50 [6] | IC50 [7]

C/C=C\c1ccc(O)c(OC)c1 [ISOEUGENOL]
Not Active: IC50 [1] | Ki [1] | IC50 [2] | Ki [2] | IC50 [3] | Ki [3] | IC50 [4] | IC50 [5] | IC50 [6] | IC50 [7]

[N-]=[N+]=CC(=O)OC[C@H](N)C(=O)O [AZASERINE]
Not Active: IC50 [1] | Ki [1] | IC50 [2] | Ki [2] | IC50 [3] | Ki [3] | IC50 [4] | IC50 [5] | IC50 [6] | IC50 [7]

CCOC(=O)C1=C(C)NC(C)=C(C(=O)OC)C1c1cccc(Cl)c1Cl (centres undefined) [FELODIPINE]
Not Active: IC50 [1] | Ki [1] | IC50 [2] | Ki [2] | IC50 [3] | Ki [3] | IC50 [4] | IC50 [5] | IC50 [6] | IC50 [7]

C[C@H](C(=O)O)c1cccc(C(=O)c2ccccc2)c1 [DEXKETOPROFEN]
Not Active: IC50 [1] | Ki [1] | IC50 [2] | Ki [2] | IC50 [3] | Ki [3] | IC50 [4] | IC50 [5] | IC50 [6] | IC50 [7]

Cc1cn[nH]c1 [FOMEPIZOLE]
Not Active: IC50 [1] | Ki [1] | IC50 [2] | Ki [2] | IC50 [3] | Ki [3] | IC50 [4] | IC50 [5] | IC50 [6] | IC50 [7]

O=c1cc(-c2ccccc2)oc2ccc3ccccc3c12 [BETA-NAPHTHOFLAVONE]
Not Active: IC50 [1] | Ki [1] | IC50 [2] | Ki [2] | IC50 [3] | Ki [3] | IC50 [4] | IC50 [5] | IC50 [6] | IC50 [7]

Cc1c(N(C)CS(=O)(=O)[O-])c(=O)n(-c2ccccc2)n1C.[Na+] [DIPYRONE SODIUM]
Not Active: IC50 [1] | Ki [1] | IC50 [2] | Ki [2] | IC50 [3] | Ki [3] | IC50 [4] | IC50 [5] | IC50 [6] | IC50 [7]

CN1C(=O)CN=C(c2ccccc2)c2cc(Cl)ccc21 [DIAZEPAM]
Not Active: IC50 [1] | Ki [1] | IC50 [2] | Ki [2] | IC50 [3] | Ki [3] | IC50 [4] | IC50 [5] | IC50 [6] | IC50 [7]

CO[C@H]1[C@@H](O)[C@H](N)[C@@H](O[C@H]2O[C@H]([C@H](C)N)CC[C@H]2N)[C@H](O)[C@@H]1N(C)C(=O)CN [ASTROMICIN]
Not Active: IC50 [1] | Ki [1] | IC50 [2] | Ki [2] | IC50 [3] | Ki [3] | IC50 [4] | IC50 [5] | IC50 [6] | IC50 [7]

CCn1cc(C(=O)O)c(=O)c2cc(F)c(N3CCNCC3)nc21 [ENOXACIN]
Not Active: IC50 [1] | Ki [1] | IC50 [2] | Ki [2] | IC50 [3] | Ki [3] | IC50 [4] | IC50 [5] | IC50 [6] | IC50 [7]

CCC(=O)O[C@H]1[C@H](O[C@@H]2[C@@H](C)[C@H](O[C@H]3C[C@@](C)(OC)[C@@H](O)[C@H](C)O3)[C@@H](C)C(=O)O[C@H](CC)[C@@](C)(O)[C@H](O)[C@@H](C)C(=O)[C@H](C)C[C@@]2(C)O)O[C@H](C)C[C@@H]1N(C)C [ERYTHROMYCIN PROPIONATE]
Not Active: IC50 [1] | Ki [1] | IC50 [2] | Ki [2] | IC50 [3] | Ki [3] | IC50 [4] | IC50 [5] | IC50 [6] | IC50 [7]

COBALT(II) ACETYLACETONATE
Not Active: IC50 [1] | Ki [1] | IC50 [2] | Ki [2] | IC50 [3] | Ki [3] | IC50 [4] | Ki [4] | IC50 [5] | Ki [5] | IC50 [6] | Ki [6] | IC50 [7] | Ki [7]

N[C@@H](Cc1ccc(F)cc1)C(=O)O
Not Active: IC50 [1] | Ki [1] | IC50 [2] | Ki [2] | IC50 [3] | Ki [3] | IC50 [4] | IC50 [5] | IC50 [6] | IC50 [7]

O=C(O)Cc1ccc(-c2ccccc2)cc1 [FELBINAC]
Not Active: IC50 [1] | Ki [1] | IC50 [2] | Ki [2] | IC50 [3] | Ki [3] | IC50 [4] | IC50 [5] | IC50 [6] | IC50 [7]

NC[C@H]1O[C@H](O[C@H]2[C@H](O)[C@@H](O[C@H]3O[C@H](CO)[C@@H](O)[C@H](N)[C@H]3O)[C@H](N)C[C@@H]2N)[C@H](O)[C@@H](O)[C@@H]1O [KANAMYCIN]
Not Active: IC50 [1] | Ki [1] | IC50 [2] | Ki [2] | IC50 [3] | Ki [3] | IC50 [4] | IC50 [5] | IC50 [6] | IC50 [7]

N=C(N)N/N=C/c1c(Cl)cccc1Cl [GUANABENZ]
Not Active: IC50 [1] | Ki [1] | IC50 [2] | Ki [2] | IC50 [3] | Ki [3] | IC50 [4] | IC50 [5] | IC50 [6] | IC50 [7]

C[C@]12CCC(=O)C=C1CC[C@@H]1[C@@H]2[C@@H](O)C[C@@]2(C)[C@H]1CC[C@]2(O)C(=O)CO [HYDROCORTISONE]
Not Active: IC50 [1] | Ki [1] | IC50 [2] | Ki [2] | IC50 [3] | Ki [3] | IC50 [4] | IC50 [5] | IC50 [6] | IC50 [7]

Nc1nc(N)nc(NC2CC2)n1 [CYROMAZINE]
Not Active: IC50 [1] | Ki [1] | IC50 [2] | Ki [2] | IC50 [3] | Ki [3] | IC50 [4] | IC50 [5] | IC50 [6] | IC50 [7]

OCCO [ETHYLENE GLYCOL]
Not Active: IC50 [1] | Ki [1] | IC50 [2] | Ki [2] | IC50 [3] | Ki [3] | IC50 [4] | IC50 [5] | IC50 [6] | IC50 [7]
